How the values were obtained:
H9c2 cells [1] = assay: NO release level in H9c2 cells under normoxia or hypoxia, Griess method; type: cell-based; conditions: for NO release (%) / NO release amount (%): H9c2 cells, 4 h; for NO release (%): hypoxia (1% O2); for NO release amount (%): normoxia (21% O2)
Description: H9c2 cells were revived, cultured with DMEM medium, and placed in a carbon dioxide incubator to allow the cells to adhere to the wall for growth. After the cells grew to reach an appropriate density, cells were inoculated in a multi-well plate and placed in the carbon dioxide incubator for culture for 24 h at 37° C., 5% CO2, and saturated humidity until the cells adhered to the wall, the supernatant was discarded, and 2 mL of fresh DMEM medium was added. Then, a certain concentration (5, 10, 15 μM) of compounds and the reference drug of isosorbide dinitrate were added. After culturing in a normoxic incubator (37° C., 21% O2) or an anoxic incubator (37° C., 1% O2) for 4 h, the supernatant was removed, and the cells in the multi-well plate were collected in 1.5 mL centrifuge tubes and centrifuged at 1000 rpm for 5 min, the supernatant was discarded, 1 mL of PBS was added into the centrifuge tubes to resuspend the cells, and the cells were centrifuged again, the PBS was discarded. 100 μL of cell lysis buffer (special for NO measurement) was added to the centrifuge tubes, placed on ice for half a minute, and then centrifuged for 5 min at 4° C. and 13300 rpm, and the supernatant was collected. 50 μL of the supernatant was taken in a 96-well plate, three parallel groups were set for each sample, and 50 μL of Griess reagent I and 50 μL of Griess reagent II were added in sequence. The OD value of each well was measured at 540 nm with a full-wavelength microplate reader, and the NO concentration was calculated using the standard curve, as shown in Tables 1 and 2.

[2] = system: heart of mouse hypoxia model; assay: NO release level in the heart of mouse hypoxia model, NO detection kit; type: in vivo; conditions: mouse hypoxia model (85 mg/kg isoproterenol), 20 mg/kg intraperitoneally before modeling, FIG. 2
From the text: NO detection kit (Biyuntian Biotechnology Co., Ltd., Shanghai), heart tissue homogenate of hypoxia modeling and drug-given mouse, and blank control group mouse, and 6-8-week-old male Kunming mouse.
NO has chemical activity and is rapidly converted into NO3^− and NO2^− in the body, and NO2^− is further converted into NO3^−. NO^3− is reduced to NO2^− […], NO2^− has characteristic absorption at 540 nm, the absorbance is detected at 540 nm by a microplate reader, and the NO concentration is calculated using a standard curve.
• (1) Hypoxia model (85 mg/kg isoproterenol), the drug-given group was intraperitoneally injected with 20 mg/kg compound I1 before hypoxia modeling; • (2) Cardiac tissue homogenate protein was obtained by centrifugation at 12,000 rpm for 15 min; • (3) The working solution in the NO detection kit was prepared, the working solution was added to each group of proteins, after incubation, and each group of proteins was detected with an microplate reader to analyze the NO content in each group, as shown in FIG. 2.

[3] = system: mTORC1 and TSC2-P proteins; assay: Expression level of myocardial injury marker proteins in myocardial hypoxia mouse, Western blot; type: in vivo; conditions: hypoxia model mouse pretreated with 20 mg/kg, FIG. 3
From the text: Western Blot gel preparation kit (Biyuntian Biotechnology Co., Ltd., Shanghai), BCA detection kit for protein quantification (Biyuntian Biotechnology Co., Ltd., Shanghai), ionization buffer, wet transfer solution, primary antibody (anti-TSC2-P, Abgent, 1:1000, A-AP3825a; anti-mTORC1, Abcam, 1:1000, ab120224; anti-GAPDH, Bioworld Technology, 1:500, AP0063), secondary antibody (Goat Anti-Rabbit IgG (H+L) HRP, 1:3000, Bioworld Technology, BS13278), 6-8-week-old male Kunming mouse.
The changes of protein expression levels are analyzed based on Western Blot bands.
• (1) Mouse heart tissue protein was extracted and centrifuged at 12,000 rpm for 15 min to collect the protein, the protein was quantified using a BCA kit, and added to boiling water in loading buffer and cook for 5 min for later use; • (2) SDS-PAGE gel was prepared and the sample was loaded to separate protein bands; • (3) After transferring the protein bands to the PVDF membrane, the membrane was blocked with milk to incubate primary and secondary antibodies in sequence. The protein bands were visualized using a chemiluminescence developer to analyze the changes of protein expression in each group, as shown in FIG. 3.

H9c2 cells [4] = assay: Vitality of H9c2 cells under normoxia or hypoxia (CCK8); type: cell-based; conditions: 4 h; for improvement on the cell viability: normoxic condition, FIG. 1A
Description: The cells were washed twice with 5 mL PBS, 1 mL trypsin was added to digest the monolayer cultured H9c2 cells, a single cell suspension was prepared with serum-containing culture medium, and 5000-10000 cells per well were inoculated in a 96-well culture plate. The volume of culture medium per well is 100 μL, and the edge wells are filled with sterilized pure water. The culture plate was moved into a carbon dioxide incubator for culture for 24 h at 37° C., 5% CO2, and saturated humidity until the cells adhere to the wall. 100 μL culture medium in the well was aspirated, 50 μL fresh culture medium was added into the well, and different concentrations of compounds and reference drug isosorbide dinitrate were given respectively to the well. 50 μL drug was added to each well, 3 parallel groups and 1 normoxic group without drug addition as control were set, and concentration gradient of the drug is 10, 1, 0.1, 0.01, 0.001 μM. The normoxic group was incubated in a normal incubator at 5% CO2 and 37° C. for 4 h; and the hypoxic group was incubated in a hypoxic incubator (concentration of 02≤1%) at 37° C. for 4 h. After the culture was completed, 10 μL CCK8 reagent was added to each well and the normoxic group and the hypoxic group continued to be cultured in a normoxic incubator for 4 h, and the culture was terminated. The absorbance of each well was measured at 450 nm with a microplate reader to calculate the cell survival rate of cells at different concentrations, as shown in FIGS. 1A and 1B.

| Compound | NO release (%) (H9c2 cells [1]; compound 5 μM) | NO release (%) (H9c2 cells [1]; compound 10 μM) | NO release (%) (H9c2 cells [1]; compound 15 μM) | NO release amount (%) (H9c2 cells [1]; compound 5 μM) | NO release amount (%) (H9c2 cells [1]; compound 10 μM) | NO release amount (%) (H9c2 cells [1]; compound 15 μM) | also measured |
| --- | --- | --- | --- | --- | --- | --- | --- |
| CN(N=O)c1ccc(OC(=O)OCc2ccc([N+](=O)[O-])cc2)cc1 [Compound I1, 4-((methylnitroso)amino) phenyl (4-nitrobenzyl) carbonate] | 25.24 | 24.38 | 20.15 | 0.24 | 0.84 | 0.16 | NO level in the heart [2]: significantly higher than that of the other two groups; anti-myocardial hypoxic damage effect [3]: excellent anti-myocardial hypoxic damage effect; expression of mTORC1 in the hearts ([3]; Western blot): restored to near a level of the normal group |
| CN(N=O)c1ccc(OC(=O)OCc2ccc([N+](=O)[O-])cc2Cl)cc1 [Compound I2, 4-((methylnitroso)amino) phenyl (2-chloro-4-nitrobenzyl) carbonate] | 34.75 | 30.96 | 27.37 | 1.58 | 3.34 | 0.93 |  |
| Cc1cc([N+](=O)[O-])ccc1COC(=O)Oc1ccc(N(C)N=O)cc1 [Compound I3, 4-((methylnitroso)amino) phenyl (2-methyl-4-nitrobenzyl) carbonate] | 40.58 | 45.42 | 43.21 | 0.43 | 0.92 | 0.32 |  |
| CN(N=O)c1ccc(OC(=O)OCc2ccccc2[N+](=O)[O-])cc1 [Compound I4, 4-((methylnitroso)amino) phenyl (2-nitrobenzyl) carbonate] | 20.78 | 20.62 | 18.33 | 1.02 | 2.35 | 0.98 | improvement on the cell viability (H9c2 cells [4]; 1 μM): slight improvement on the cell viability |
| CN(N=O)c1ccc(OC(=O)OCc2ccc(Cl)cc2[N+](=O)[O-])cc1 [Compound I5, 4-((methylnitroso)amino) phenyl (2-nitro-4-chlorobenzyl) carbonate] |  | 0.96 |  |  | 0.15 |  |  |
| CN(N=O)c1ccc(OC(=O)OCc2ccc(Br)cc2[N+](=O)[O-])cc1 [Compound I6, 4-((methylnitroso)amino) phenyl (2-nitro-4-bromobenzyl) carbonate] |  | 0.94 |  |  | 0.17 |  |  |
| Cc1ccc(COC(=O)Oc2ccc(N(C)N=O)cc2)c([N+](=O)[O-])c1 [Compound I7, 4-((methylnitroso)amino) phenyl (2-nitro-4-methylbenzyl) carbonate] |  | 1.83 |  |  | 0.12 |  |  |
| CN(N=O)c1ccc(OC(=O)OCc2cc(Cl)ccc2[N+](=O)[O-])cc1 [Compound I8, 4-((methylnitroso)amino) phenyl (2-nitro-5-chlorobenzyl) carbonate] |  | 0.93 |  |  | 0.27 |  |  |
| Cc1ccc([N+](=O)[O-])c(COC(=O)Oc2ccc(N(C)N=O)cc2)c1 [Compound I9, 4-((methylnitroso)amino) phenyl (2-nitro-5-methylbenzyl) carbonate] |  | 0.95 |  |  | 0.23 |  |  |
| O=[N+]([O-])O[C@H]1CO[C@H]2[C@@H]1OC[C@H]2O[N+](=O)[O-] [Isosorbide dinitrate, isosorbide dinitrate] |  |  |  |  |  |  | NO release amount (H9c2 cells [1]; hypoxia condition, different concentrations (5, 10, 15 μM)): less than that under the normoxia condition; viability of hypoxic cells (H9c2 cells [4]; hypoxic condition (O2≤1%), 0.001-10 μM, FIG. 1B): a certain improvement on the cell viability at high concentration; improvement on the cell viability (H9c2 cells [4]; 0.001-10 μM): does not improve the cell viability |

Source: US12275686B2, “NO donor compound, preparation method thereof, pharmaceutical composition comprising same, and use thereof” (SOUTHEAST UNIVERSITY, priority 2022, dated 2025)
